Reference: PubChem BioAssay AID651731 (NMMLSC, 2012)
Active and inactive are the calls of the source. No rule for the calls is given here.

Experiments:
[1] = vacuolar alkalinization by V-ATPase blockade – S. cerevisiae, BCECF dye, powder sets 2-3, dose response (AID 651731); settings: S. cerevisiae vacuolar pH, BCECF fluorescence; at 100 µM (top of the series)
[2] = molecular target: S. cerevisiae vacuolar pH, BCECF fluorescence; experiment: as above

Compound | response (vacuolar pH increase) [1] | EC50 [2]
O=C(c1ccc(Br)o1)N1CCN(c2nc3ccc(F)cc3s2)CC1 | inactive | 
Nc1cncc(C(=O)N2CCN(c3nc4ccc(F)cc4s3)CC2)n1 | inactive | 
O=C(c1cncc(Cl)n1)N1CCN(c2nc3ccc(F)cc3s2)CC1 | inactive | 
O=C(c1cccc(Cl)n1)N1CCN(c2nc3ccc(F)cc3s2)CC1 |  | 37.4 µM
O=C(c1ccc(C(F)(F)F)o1)N1CCN(c2nc3ccc(F)cc3s2)CC1 | inactive | 
O=C(c1cc(CO)ccn1)N1CCN(c2nc3ccc(F)cc3s2)CC1 | inactive | 
Cc1cncc(C(=O)N2CCN(c3nc4ccc(F)cc4s3)CC2)n1 | inactive | 
NS(=O)(=O)c1ccc(C(=O)N2CCN(c3nc4ccc(F)cc4s3)CC2)o1 | inactive | 
O=C(c1cccc(C(F)(F)F)c1)N1CCN(c2nc3ccc(F)cc3s2)CC1 |  | 31.8 µM
Cc1ccnc(C(=O)N2CCN(c3nc4ccc(F)cc4s3)CC2)c1 | inactive | 
CS(=O)(=O)c1ccc(C(=O)N2CCN(c3nc4ccc(F)cc4s3)CC2)o1 | inactive | 
N#Cc1cccc(C(=O)N2CCN(c3nc4ccc(F)cc4s3)CC2)c1 | inactive | 
O=C(c1cccc(Br)n1)N1CCN(c2nc3ccc(F)cc3s2)CC1 | inactive | 
COCc1ccc(C(=O)N2CCN(c3nc4ccc(F)cc4s3)CC2)o1 | inactive | 
Cc1cccc(C(=O)N2CCN(c3nc4ccc(F)cc4s3)CC2)n1 | inactive | 
O=C(c1cc(Cl)ccn1)N1CCN(c2nc3ccc(F)cc3s2)CC1 | inactive | 
Cc1ccc(C(=O)N2CCN(c3nc4ccc(F)cc4s3)CC2)o1 | inactive | 
O=C(c1cc(C(F)(F)F)ccn1)N1CCN(c2nc3ccc(F)cc3s2)CC1 | inactive | 
CN(C)S(=O)(=O)c1cccc(C(=O)N2CCN(c3nc4ccc(F)cc4s3)CC2)c1 | inactive | 
CS(=O)(=O)Cc1cccc(C(=O)N2CCN(c3nc4ccc(F)cc4s3)CC2)c1 | inactive | 
COCc1cccc(C(=O)N2CCN(c3nc4ccc(F)cc4s3)CC2)c1 | inactive | 
N#Cc1ccnc(C(=O)N2CCN(c3nc4ccc(F)cc4s3)CC2)c1 | inactive | 
CC(C)(C)c1ccc(C(=O)N2CCN(c3nc4ccc(F)cc4s3)CC2)o1 | inactive | 
CN(C)Cc1cccc(C(=O)N2CCN(c3nc4ccc(F)cc4s3)CC2)c1 | inactive | 
O=C(c1cccc(C(F)(F)F)n1)N1CCN(c2nc3ccc(F)cc3s2)CC1 |  | 60.5 µM
CN(C)Cc1ccc(C(=O)N2CCN(c3nc4ccc(F)cc4s3)CC2)o1 | inactive | 
Nc1ncc(C(=O)N2CCN(c3nc4ccc(F)cc4s3)CC2)o1 | inactive | 

The next lines start with the values.

response (vacuolar pH increase) [1] | EC50 [2] | Compound
inactive |  | CN(C)C(=O)c1cccc(C(=O)Nc2ccccc2N2CCOCC2)c1
inactive |  | Cc1ccnc(C(=O)Nc2ccccc2N2CCOCC2)c1
inactive |  | O=C(Nc1ccccc1N1CCOCC1)c1cccc(Br)n1
inactive |  | CN(C)Cc1cccc(C(=O)Nc2ccccc2N2CCOCC2)c1
inactive |  | CS(=O)(=O)c1cccc(C(=O)Nc2ccccc2N2CCOCC2)c1
inactive |  | O=C(Nc1ccccc1N1CCOCC1)c1ccc(C(F)(F)F)o1
inactive |  | Cc1cncc(C(=O)Nc2ccccc2N2CCOCC2)n1
inactive |  | O=C(Nc1ccccc1N1CCOCC1)c1cccc(Cl)n1
inactive |  | NC(=O)c1cccc(C(=O)N2CCN(c3nc4ccc(F)cc4s3)CC2)c1
inactive |  | Nc1cncc(C(=O)Nc2ccccc2N2CCOCC2)n1
inactive |  | N#Cc1ccnc(C(=O)Nc2ccccc2N2CCOCC2)c1
inactive |  | O=C(Nc1ccccc1N1CCOCC1)c1cc(C(F)(F)F)ccn1
inactive |  | N#Cc1cccc(C(=O)Nc2ccccc2N2CCOCC2)c1
inactive |  | COCc1ccc(C(=O)Nc2ccccc2N2CCOCC2)o1
inactive |  | O=C(Nc1ccccc1N1CCOCC1)c1cncc(Cl)n1
inactive |  | CC(C)(C)c1ccc(C(=O)Nc2ccccc2N2CCOCC2)o1
inactive |  | O=C(Nc1ccccc1N1CCOCC1)c1cccc(C(F)(F)F)n1

response (vacuolar pH increase) [1] | EC50 [2] | Compound
inactive |  | O=C(c1ccc(-c2ccccc2)o1)N1CCN(c2nc3ccc(F)cc3s2)CC1
inactive |  | O=C(Nc1ccccc1N1CCOCC1)c1cccc(C(F)(F)F)c1
inactive |  | CN(C)C(=O)c1cccc(C(=O)N2CCN(c3nc4ccc(F)cc4s3)CC2)c1
inactive |  | NS(=O)(=O)c1cccc(C(=O)N2CCN(c3nc4ccc(F)cc4s3)CC2)c1
inactive |  | CS(=O)(=O)c1ccc(C(=O)Nc2ccccc2N2CCOCC2)o1
inactive |  | NS(=O)(=O)c1cccc(C(=O)Nc2ccccc2N2CCOCC2)c1
inactive |  | CN(C)S(=O)(=O)c1cccc(C(=O)Nc2ccccc2N2CCOCC2)c1
inactive |  | CN(C)Cc1ccc(C(=O)Nc2ccccc2N2CCOCC2)o1
inactive |  | NC(=O)c1ccc(C(=O)N2CCN(c3nc4ccc(F)cc4s3)CC2)o1
inactive |  | Cc1ccc(C(=O)Nc2ccccc2N2CCOCC2)o1
inactive |  | O=C(Nc1ccccc1N1CCOCC1)c1ccc(-c2ccccc2)o1
inactive |  | Cc1cccc(C(=O)Nc2ccccc2N2CCOCC2)n1
inactive |  | NC(=O)c1cccc(C(=O)Nc2ccccc2N2CCOCC2)c1
inactive |  | O=C(Nc1ccccc1N1CCOCC1)c1cc(Cl)ccn1
inactive |  | O=C(Nc1ccccc1N1CCOCC1)c1ccc(Br)o1
inactive |  | Nc1ncc(C(=O)Nc2ccccc2N2CCOCC2)o1
inactive |  | COCc1cccc(C(=O)Nc2ccccc2N2CCOCC2)c1
